Results as given in ChEMBL document CHEMBL3046756, “Synthesis, anti-inflammatory, and structure antioxidant activity relationship of novel 4-quinazoline” (Med Chem Res, 2013).
Calls of active or inactive are those of the source. The calls are words filed in the database; no cut-off is given here.

What was measured:
Type in all cases: functional
Rattus norvegicus [1] = assay: Anti-inflammatory activity in Wistar Rattus norvegicus (rat) assessed as inhibition of carrageenan-induced paw edema at 30 mg/kg, po administered 30 min prior to carrageenan challenge measured at 60 min relative to untreated control
Rattus norvegicus [2] = assay: Anti-inflammatory activity in Wistar Rattus norvegicus (rat) assessed as inhibition of carrageenan-induced paw edema at 30 mg/kg, po administered 30 min prior to carrageenan challenge measured at 30 min post carrageenan challenge relative to untreated control
Rattus norvegicus [3] = assay: Anti-inflammatory activity in Wistar Rattus norvegicus (rat) assessed as inhibition of carrageenan-induced paw edema at 30 mg/kg, po administered 30 min prior to carrageenan challenge measured at 180 min relative to untreated control
Rattus norvegicus [4] = assay: Anti-inflammatory activity in Wistar Rattus norvegicus (rat) assessed as inhibition of carrageenan-induced paw edema at 30 mg/kg, po administered 30 min prior to carrageenan challenge measured at 120 min relative to untreated control
Rattus norvegicus [5] = assay: Anti-inflammatory activity in Wistar Rattus norvegicus (rat) assessed as inhibition of carrageenan-induced paw edema at 30 mg/kg, po administered 30 min prior to carrageenan challenge measured at 90 min relative to untreated control
Rattus norvegicus [6] = assay: Effect on GST level in Wistar Rattus norvegicus (rat) liver measured CDNB conjugated per min per mg of protein at 30 mg/kg, po after 10 days (reference value: 0.86 +/- 0.08 mmol)
Rattus norvegicus [7] = assay: Effect on glutathione reductase level in Wistar Rattus norvegicus (rat) liver measured NADPH oxidized per min per mg of protein at 30 mg/kg, po after 10 days (reference value: 4.19 +/ 0.42 nmol)
Rattus norvegicus [8] = assay: Effect on gamma-glutamyl transferase level in Wistar Rattus norvegicus (rat) serum at 30 mg/kg, po qd after 10 days (reference value: 0.57 +/- 0.04 U/I)
Rattus norvegicus [9] = assay: Effect on ALP level in Wistar Rattus norvegicus (rat) serum at 30 mg/kg, po qd after 10 days (reference value: 39.5 +/- 3.86 U/I)
Rattus norvegicus [10] = assay: Effect on SGPT level in Wistar Rattus norvegicus (rat) at 30 mg/kg, po qd after 10 days (reference value: 38.77 +/- 4.25 U/I)
Rattus norvegicus [11] = assay: Effect on SGOT level in Wistar Rattus norvegicus (rat) at 30 mg/kg, po qd after 10 days (reference value: 145.50 +/- 13.86 U/I)
Rattus norvegicus [12] = assay: Effect on glutathione peroxidase level in Wistar Rattus norvegicus (rat) liver measured GSH oxidized per min per mg of protein at 30 mg/kg, po after 10 days (reference value: 47.47 +/- 3.86 mmol)
Rattus norvegicus [13] = assay: Effect on GSH level in Wistar Rattus norvegicus (rat) liver measured per mg of protein at 30 mg/kg, po after 10 days (reference value: 1.84 +/- 0.092 mg)
Rattus norvegicus [14] = assay: Effect on TBARS level in Wistar Rattus norvegicus (rat) serum at 30 mg/kg, po qd after 10 days (reference value: 0.82 +/- 0.073 nmol/ml)
Rattus norvegicus [15] = assay: Effect on LDH level in Wistar Rattus norvegicus (rat) serum at 30 mg/kg, po qd after 10 days (reference value: 249.89 +/- 13.26 U/I)
[16] = Antioxidant activity assessed as inhibition of linoleic acid peroxidation at 100 mg/l after 24 hr by spectrophotometric analysis
[17] = Antioxidant activity assessed as reduction of Fe3+ to Fe2+ at 20 to 140 ug/ml after 30 min by spectrophotometric analysis
Rattus norvegicus [18] = assay: Antipyretic activity in Wistar Rattus norvegicus (rat) assessed as decrease in Brewer's yeast solution-induced hyperthermia at 20 mg/kg, po measured after 3 hr (reference value: 36.8 +/- 1.9 degC)
Rattus norvegicus [19] = assay: Antipyretic activity in Wistar Rattus norvegicus (rat) assessed as decrease in Brewer's yeast solution-induced hyperthermia at 20 mg/kg, po measured after 2 hr (reference value: 37 +/- 1.7 degC)
Rattus norvegicus [20] = assay: Antipyretic activity in Wistar Rattus norvegicus (rat) assessed as decrease in Brewer's yeast solution-induced hyperthermia at 20 mg/kg, po measured after 1 hr (reference value: 37 +/- 3.55 degC)
[21] = tested on: Radical scavenging activity; assay: Antioxidant activity assessed as DPPH free radical scavenging activity at 0.06 mg/ml after 5 to 60 min by spectrophotometric analysis

## O=C([O-])Cc1ccccc1Nc1c(Cl)cccc1Cl.[Na+] [DICLOFENAC SODIUM]
Rattus norvegicus [1]
  inhibition in vivo at 30 mg/kg: 82%
Rattus norvegicus [2]
  inhibition in vivo at 30 mg/kg: 41.3%
Rattus norvegicus [3]
  inhibition in vivo at 30 mg/kg: 100%
Rattus norvegicus [4]
  inhibition in vivo at 30 mg/kg: 92.8%
Rattus norvegicus [5]
  inhibition in vivo at 30 mg/kg: 86.3%
Rattus norvegicus [6]
  Activity: 0.63 mmol
Rattus norvegicus [7]
  Activity: 3.28 nmol
Rattus norvegicus [8]
  Activity: 1.37 U/L
Rattus norvegicus [9]
  Activity: 75.25 U/L
Rattus norvegicus [10]
  Activity: 84.43 U/L
Rattus norvegicus [11]
  Activity: 201.27 U/L
Rattus norvegicus [12]
  Activity: 32.09 mmol
Rattus norvegicus [13]
  Activity: 0.79 mg
Rattus norvegicus [14]
  Activity: 1.41 nmol/mL
Rattus norvegicus [15]
  Activity: 320.69 U/L

## Cc1c(C)c2c(c(C)c1O)CC[C@@](C)(CCC[C@H](C)CCC[C@H](C)CCCC(C)C)O2
[16]
  inhibition: Active
[17]
  Activity: Active

## CC(=O)Nc1ccc(O)cc1 [ACETAMINOPHEN]
Rattus norvegicus [18]
  T: 36.4 °C
Rattus norvegicus [19]
  T: 36.8 °C
Rattus norvegicus [20]
  T: 37 °C

## Cc1cc(C(C)(C)C)c(O)c(C(C)(C)C)c1
[16]
  inhibition: Active
[17]
  Activity: Active

## Cc1c(C)c2c(c(C)c1O)CCC(C)(C(=O)O)O2 (centres undefined)
[16]
  inhibition: Active
[21]
  Activity: Active
